Columns and labels:
HUVEC = HUVEC tube formation assay; assay type: cell-based, human; conditions: 25 μM peptide; FIG. 3 A-B
Experimental: Tube Formation Inhibition Assays.
The compositions also were tested for their ability to inhibit tube formation, a process critical in angiogenesis. Endothelial cells spontaneously form a network of tubes when plated on extracts of extracellular matrix. This in vitro assay combines aspects of adhesion and migration and it is routinely used in angiogenesis research (Oliveira-Ferrer et al., 2008). The ability to inhibit tube formation is a comprehensive assessment of the anti-angiogenic potential. The protocol was described by Arnaoutova et al. (2009) and it consists of plating HUVEC on top of basement membrane extract. After incubation at 37° C., the cells naturally rearrange themselves in a network of tubes. Thus, 50 μL/well of Matrigel (BD Biosciences, San Jose, Calif.) was plated in a cold 96 well plate and incubated at 37° C. for 30 min for polymerization. 15,000 cells/well were added to the top of the gel and incubated in complete media in the presence or absence of peptide for 19 hours. Images were captured using the CCD Sensicam mounted on a Nikon microscope (Eclipse T-100). Assays were performed in at least two independent replicates and each replicate was performed using three experimental replicates and one image of a randomly chosen field was acquired per well.

[1] = system: lymphatic endothelial cell (LEC); assay: LEC adhesion assay; assay type: cell-based; conditions: FIG. 4
Experimental: Similar to the migration assays, the inhibition activity of the peptide in cellular adhesion was assessed using the RT-CIM technology. In this case, 25,000 cells/well were plated in 16 wells E-plates (Roche, Basel Switzerland) in the presence or absence of the peptide. The adhesion was monitored over time (3 hours) by measuring changes in the electrical impedance, which is a direct measure of the cells adhering on the electrodes. Assays were performed in at least two independent replicates and each replicate was performed using two experimental duplicates.

[2] = system: estrogen receptor positive cell line MCF-7; assay: Proliferation assay (WST-1), MCF-7; assay type: cell-based; conditions: in vitro; FIG. 7
Experimental: A colorimetric based proliferation assay using WST-1 (Roche, 11644807001) proliferation reagent was carried out using HREC cells, HUVEC cells, and the breast cancer cells MDA-MB-231, MCF-7, and SUM149. 2000 cells/well were plated in 96-well plates and allowed to adhere overnight. On the following day, the media was exchanged with fully supplemented media containing peptides or equivalent DMSO vehicle for the controls. Three days later, the media containing the peptides was replaced with serum-free EBM-2 media containing WST-1 reagent and the plates were incubated for four hours as per the manufacturer's recommendations. Changes in color, due to the formazan dye resulted from the cleavage of the tetrazolium salt WST-1 by the mitochondrial succinate-tetrazolium reductase, were read on a Victor V fluorescence plate reader (Perkin Elmer, Mass.) by measuring the absorbance at 450 nm. Dose response curves of percent live cells (in comparison to untreated cells, but incubated in complete media with 0.2% DMSO) were created. Assays were performed in at least two independent replicates and each replicate was performed using three experimental triplicates.

HGF signaling = HGF signaling in MDA-MB-231 cells; assay type: cell-based, human; conditions: FIG. 8
MDA-MB-231-luc tumors = assay: TCM-induced metastasis model; assay type: in vivo, mice
Experimental: TCM-Induced Metastasis Model.
Before tumor inoculation, athymic nude mice (female 5-6 weeks, 18-20 g) were treated with 50 μL TCM or SFM subcutaneously through the scruff for 2 weeks. After 2 weeks of TCM treatment, MDA-MB-231-luc-D3H2LN tumor xenografts were established in the same animals; the cells (2×10^6) were mixed with 50 μL complete media (RPMI-1640 supplemented with 10% FBS), and 50 μL Matrigel (High Concentrated, BD Biosciences) and injected into the upper inguinal mammary fat pad of the animals under anesthesia (50 mg/kg ketamine+5 mg/kg acepromazine in PBS, 50 μL/animal, intraperitoneally dosed). The primary tumor size was measured by using a caliper, and the volume w calculated, using the formula: V=0.52×a×b^2, where ‘a’ is the long axis, and ‘b’ is the short axis of the tumor. Animals were also imaged every week to track anterior tumor metastases, using the IVIS Xenogen 200 optical imager (Xenogen, Alameda, Calif.) after intraperitoneal injection of d-luciferin (Caliper 150 mg/kg). 100 μL D-luciferin (twice diluted) was intraperitoneally dosed on both sides of the abdomen (total 200 μL/animals) to prevent i.p. injection failure. […] Luciferase-mediated photon flux was quantified by using Living Image® 3D Analysis (Xenogen), and the average photon flux was obtained from eight lungs, eight brains, and 14-16 LNs as described before. […]

vascular leakage = assay: Vascular leakage in Tet/Opsin/VEGF mouse model; assay type: in vivo, mice; conditions: FIGS. 15A-B
Experimental: Vascular Permeability in Mouse Eyes:
Mice were injected intravitreally with 1 μg of SP2043 (SEQ ID NO: 1) in one eye, and vehicle in the fellow eye and vehicle control was injected in the other eye of adult double transgenic Tet/Opsin/VEGF mice. Three days later, the mice were given 2 mg/mL doxycycline in the drinking water for 3 days. At that time the animals were anesthetized and their pupils dilated as for standard fundoscopy. The eyes were examined to compare the number of animals that had retinal detachments under the two treatments by fundus imaging using Micron II retinal imaging and optical coherence tomography imaging using published protocols.

LRRFSTAPFAFIDINDVINF (Artificial sequence based on human Collagen Type IV protein) [SP2043]
HUVEC tube formation (HUVEC): inhibit
lymphatic endothelial cell adhesion [1]: inhibit
proliferation of MCF-7 [2]: inhibit
HGF signaling in MDA-MB-231 cells (HGF signaling): inhibit
metastasis of MDA-MB-231-luc tumors to lymph nodes, vimentin antibody staining for human cells (MDA-MB-231-luc tumors; FIG. 12B): inhibited
metastasis of MDA-MB-231-luc tumors to multiple organs, photon flux from tumor cells (MDA-MB-231-luc tumors; tumor-conditioned media pre-treated metastasis model, FIG. 12A): inhibited
vascular leakage in Tet/Opsin/VEGF mouse model (vascular leakage): inhibited

Reference: patent publication US10774112B2, “Biomimetic peptide and biodegradable delivery platform for the treatment of angiogenesis- and lymphangiogenesis-dependent diseases” (THE JOHNS HOPKINS UNIVERSITY, priority 2013, dated 2020)
